The record followed here is patent publication US20170121344A1 (Siga Technologies, Inc., priority 2009, published 2017).

The test system of assay [1] is Dengue-2 (Strain New Guinea C). The experiment in a line: Viral yield assay against Dengue-2 in Vero cells. The format is cell-based, Dengue virus. The conditions noted are these: Dengue virus, DENV2, Vero cells, read-out: Activity (EC50 in μM) DENV-2. In a few lines: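 Infect Vero cells with virus (MOI 0.1), add compound or DMSO, incubate at 37° C, collect progeny at 48 hours post infection, then titrate on Vero cells to obtain EC50.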

The subject of assay [2] is DENV-1. In words: Viral yield assay against DENV-1 in Vero cells. The format is cell-based. The conditions noted are these: Dengue virus. Here is the method: (§1) Compounds that were active in the primary screen were tested for activity in viral yield assays. […] Vero cells in 12-well plates were infected with dengue-2 virus at a multiplicity of infection (MOI) of 0.1, treated with compound (or DMSO as a control), incubated at 37° C., harvested 48 hours post infection and titered on Vero cells as described above. The EC50 was calculated through ExcelFit. Activities against other serotypes of dengue virus were determined in a similar way.

Assay [3] deals with DENV-4. The experiment in a line: Viral yield assay against DENV-4 in Vero cells. The format is cell-based. The conditions noted are these: Dengue virus. Here is the method:
as §1

Assay [4] deals with DENV-3. In words: Viral yield assay against DENV-3 in Vero cells. The format is cell-based. The following applies: Dengue virus. Here is the method:
as §1

Setting [5] is: viral yield assay, MOI 0.1, 48 hours post infection.

A word on the EC50: it is the concentration giving half of the maximal effect.

Like-named read-outs stand apart in the source and are kept apart here.

As to `CN(C)CC(=O)Nc1c(C(=O)Nc2ccc(OC(F)(F)F)cc2)sc2nc3c(cc12)CN(C)CC3` [Compound 312, 3-[[2-(dimethylamino)acetyl]amino]-6-methyl-N-[4-(trifluoromethoxy)phenyl]-7,8-dihydro-5H-thieno[2,3-b][1,6]naphthyridine-2-carboxamide], the EC50 in assay [1], in assay [2] (DENV1), in assay [3] (DENV4) and in assay [4] (DENV3) was below 5 µM each time.

As for `Nc1c(C(=O)Nc2cccc(Cl)c2Cl)sc2nc(-c3ccc(Cl)cc3)ccc12` [Compound 343, 3-amino-6-(4-chlorophenyl)-N-(2,3-dichloro-phenyl)thieno [2,3-b]pyridine-2-carboxamide], the EC50 in assay [1] (setting [5]) is below 5 µM; in assay [2] (DENV1, viral yield assay), below 5 µM; in assay [3] (DENV4, viral yield assay), below 5 µM; in assay [4] (DENV3, viral yield assay), below 5 µM.

As for `Nc1c(C(=O)Nc2ccc(Br)cc2)sc2nc(-c3ccc(Cl)cn3)ccc12` [Compound 349, 3-amino-N-(4-bromophenyl)-6-(5-chloro-2-pyridyl)thieno [2,3-b]pyridine-2-carboxamide], the EC50 in assay [1] (setting [5]) was below 5 µM; in assay [2] (DENV1, viral yield assay), below 5 µM; in assay [3] (DENV4, viral yield assay), below 5 µM; in assay [4] (DENV3, viral yield assay), below 5 µM.

`Cc1ccc(NC(=O)c2sc3nc(-c4ccc5c(c4)OCO5)ccc3c2N)cc1Cl` [Compound 529, 3-amino-6-(1,3-benzodioxol-5-yl)-N-(3-chloro-4-methyl-phenyl)thieno[2,3-b] pyridine-2-carboxamide]: the EC50 in assay [1] (setting [5]) was below 5 µM; in assay [2] (DENV1, viral yield assay), below 5 µM; in assay [3] (DENV4, viral yield assay), below 5 µM; in assay [4] (DENV3, viral yield assay), below 5 µM.

On to `Nc1c(C(=O)Nc2ccc(C(F)(F)F)cc2)sc2nc(-c3ccncc3)ccc12` [Compound 465, 3-amino-6-(4-pyridyl)-N-[4-(trifluoromethyl)phenyl]thieno[2,3-b] pyridine-2-carboxamide], for which the concentration giving a half-maximal response (EC50) in assay [1] (setting [5]) is below 5 µM; in assay [2] (DENV1, viral yield assay), below 5 µM; in assay [3] (DENV4, viral yield assay), below 5 µM; in assay [4] (DENV3, viral yield assay), below 5 µM.

For `O=C(Nc1c(C(=O)Nc2nnc(-c3ccccc3)s2)sc2nc3c(cc12)CCCCC3)c1ccccc1` [Compound 285, 3-benzamido-N-(5-phenyl-1,3,4-thiadiazol-2-yl)-6,7,8,9-tetrahydro-5H-cyclohepta[b]thieno[3,2-e]pyridine-2-carboxamide], the EC50 in assay [1], in assay [2] (DENV1), in assay [3] (DENV4) and in assay [4] (DENV3) was below 5 µM each time.

Turning to `Nc1c(C(=O)Nc2ccc(OC(F)(F)F)cc2)sc2nc(-c3cccs3)ccc12` [Compound 428, 3-amino-6-(2-thienyl)-N-[4-(trifluoromethoxy)phenyl]thieno[2,3-b] pyridine-2-carboxamide], the EC50 is below 5 µM in assay [1] (setting [5]); below 5 µM in assay [2] (DENV1, viral yield assay); below 5 µM in assay [3] (DENV4, viral yield assay); below 5 µM in assay [4] (DENV3, viral yield assay).

For `COc1ccc(NC(=O)c2sc3nc(-c4ccc(F)cc4)ccc3c2N)cc1` [Compound 535, 3-amino-6-(4-fluorophenyl)-N-(4-methoxyphenyl)thieno[2,3-b]pyridine-2-carboxamide], the EC50 in assay [1] (setting [5]) is below 5 µM; in assay [2] (DENV1, viral yield assay), below 5 µM; in assay [3] (DENV4, viral yield assay), below 5 µM; in assay [4] (DENV3, viral yield assay) it was below 5 µM.

Regarding `COc1ccc(NC(=O)c2sc3nc(-c4ccc5c(c4)OCO5)ccc3c2N)c(OC)c1` [Compound 651, 3-amino-6-(1,3-benzodioxol-5-yl)-N-(2,4-dimethoxyphenyl)thieno[2,3-b]pyridine-2-carboxamide], the EC50 in assay [1] (setting [5]) was below 5 µM; in assay [2] (DENV1, viral yield assay), below 5 µM; in assay [3] (DENV4, viral yield assay), below 5 µM; in assay [4] (DENV3, viral yield assay), below 5 µM.

As to `COc1ccc(NC(=O)c2sc3nc(-c4ccc(Cl)cc4)ccc3c2N)c(OC)c1` [Compound 652, 3-amino-6-(4-chlorophenyl)-N-(2,4-dimethoxyyphenyl)thieno[2,3-b]pyridine-2-carboxamide], the EC50 in assay [1] (setting [5]) is below 5 µM; in assay [2] (DENV1, viral yield assay) it was below 5 µM; in assay [3] (DENV4, viral yield assay), below 5 µM; in assay [4] (DENV3, viral yield assay), below 5 µM.

As for `C=CCSc1nc2ccc(NC(=O)c3sc4nc(-c5cccc(OC)c5)ccc4c3N)cc2s1` [Compound 569, N-(2-allylsulfanyl-1,3-benzothiazol-6-yl)-3-amino-6-(3-methoxyphenyl)thieno [2,3-b]pyridine-2-carboxamide], the EC50 in assay [1] (setting [5]) is below 5 µM; in assay [2] (DENV1, viral yield assay) it was below 5 µM; in assay [3] (DENV4, viral yield assay) it was below 5 µM; in assay [4] (DENV3, viral yield assay), 5 to 25 µM.

On to `COc1ccc(NC(=O)c2sc3nc(-c4cccs4)ccc3c2N)cc1` [Compound 427, 3-amino-N-(4-methoxyphenyl)-6-(2-thienyl)thieno[2,3-b]pyridine-2-carboxamide], for which the EC50 was below 5 µM in assay [1] (setting [5]); below 5 µM in assay [2] (DENV1, viral yield assay); below 5 µM in assay [3] (DENV4, viral yield assay); below 5 µM in assay [4] (DENV3, viral yield assay).

For `O=C(O)CC(=O)Nc1c(C(=O)Nc2nnc(-c3ccccc3)s2)sc2nc(Cl)ccc12` [Compound 362, 3-[[6-chloro-2-[(5-phenyl-1,3,4-thiadiazol-2-yl)carbamoyl]thieno[2,3-b]pyridin-3-yl]amino]-3-oxo-propanoic acid], the EC50 is 5 to 25 µM in assay [1], 5 to 25 µM in assay [2] (DENV1), above 25 µM in assay [3] (DENV4) and above 25 µM in assay [4] (DENV3).

For `Nc1c(C(=O)Nc2ccc(Br)cc2)sc2nc(-c3ccc(Cl)cc3)ccc12` [Compound 425], the EC50 was below 5 µM in assay [1] (setting [5]); below 5 µM in assay [2] (DENV1, viral yield assay); below 5 µM in assay [3] (DENV4, viral yield assay); below 5 µM in assay [4] (DENV3, viral yield assay).

With `COc1ccc(-c2ccc3c(N)c(C(=O)Nc4ccc(Br)cc4)sc3n2)cc1` [Compound 469, 3-amino-N-(4-bromophenyl)-6-(4-methoxyphenyl)thieno[2,3-b]pyridine-2-carboxamide], the EC50 in assay [1] (setting [5]) is below 5 µM; in assay [2] (DENV1, viral yield assay), below 5 µM; in assay [3] (DENV4, viral yield assay), below 5 µM; in assay [4] (DENV3, viral yield assay), below 5 µM.

As for `Cc1ccc(-c2ccc3c(N)c(C(=O)Nc4ccc(Cl)cc4)sc3n2)cc1` [Compound 648, 3-amino-N-(4-chlorophenyl)-6-(p-tolyl) thieno[2,3-b]pyridine-2-carboxamide], the EC50 in assay [1] (setting [5]) was below 5 µM; in assay [2] (DENV1, viral yield assay) it was below 5 µM; in assay [3] (DENV4, viral yield assay) it was below 5 µM; in assay [4] (DENV3, viral yield assay) it was below 5 µM.

On to `Nc1c(C(=O)Nc2ccc(OC(F)F)cc2)sc2nc(-c3ccc(Cl)cc3)ccc12` [Compound 340, 3-amino-6-(4-chlorophenyl)-N-[4-(difluoro-methoxy)phe-nyl]thieno[2,3-b]pyridine-2-carboxamide], for which the EC50 in assay [1] (setting [5]) is below 5 µM; in assay [2] (DENV1, viral yield assay), below 5 µM; in assay [3] (DENV4, viral yield assay) it was below 5 µM; in assay [4] (DENV3, viral yield assay), below 5 µM.

Consider `Cc1ccc(-c2ccc3c(N)c(C(=O)Nc4ccccc4Cl)sc3n2)cc1` [Compound 650, 3-amino-N-(2-chlorophenyl)-6-(p-tolyl) thieno[2,3-b]pyridine-2-carboxamide], for which the EC50 in assay [1] (setting [5]) is below 5 µM; in assay [2] (DENV1, viral yield assay), below 5 µM; in assay [3] (DENV4, viral yield assay), below 5 µM; in assay [4] (DENV3, viral yield assay), below 5 µM.

For `C[N+](C)(C)CC(=O)Nc1c(C(=O)Nc2cccc(C(F)(F)F)c2)sc2nc(-c3cccs3)ccc12` [Compound 309, Trimethyl-[2-oxo-2-[[6-(2-thienyl)-2-[[3-(trifluoromethyl)phenyl]carbamoyl]thieno[2,3-b]pyridin-3-yl]amino]ethyl]ammonium], the 50% effective concentration (EC50) in assay [1], in assay [2] (DENV1), in assay [3] (DENV4) and in assay [4] (DENV3) was below 5 µM each time.

For the compound `Nc1c(C(=O)Nc2ccc(C(F)(F)F)cc2)sc2nc(-c3ccc(F)cc3)ccc12` [Compound 455, 3-amino-6-(4-fluorophenyl)-N-[4-(trilfuoromethyl)phenyl]thieno[2,3-b] pyridine-2-carboxamide], the EC50 was below 5 µM in assay [1] (setting [5]); below 5 µM in assay [2] (DENV1, viral yield assay); 5 to 25 µM in assay [3] (DENV4, viral yield assay); below 5 µM in assay [4] (DENV3, viral yield assay).

As to `COc1cccc(-c2ccc3c(N)c(C(=O)Nc4ccc(OC(F)(F)F)cc4)sc3n2)c1` [Compound 430, 3-amino-6-(3-methoxyphenyl)-N-[4-(trifluoromethoxy)phenyl]thieno[2,3-b] pyridine-2-carboxamide], the EC50 was below 5 µM in assay [1] (setting [5]); below 5 µM in assay [2] (DENV1, viral yield assay); below 5 µM in assay [3] (DENV4, viral yield assay); below 5 µM in assay [4] (DENV3, viral yield assay).

Take `COC(OC)c1ccc2c(N)c(C(=O)Nc3ccc(C(F)(F)F)cc3)sc2n1` [Compound 482, 3-amino-6-(dimethoxymethyl)-N-[4-(trifluoromethyl)phenyl]thieno[2,3-b] pyridine-2-carboxamide]: the concentration for a half-maximal effect (EC50) is below 5 µM in assay [1] (setting [5]); below 5 µM in assay [2] (DENV1, viral yield assay); below 5 µM in assay [3] (DENV4, viral yield assay); below 5 µM in assay [4] (DENV3, viral yield assay).

`COc1ccc(-c2ccc3c(N)c(C(=O)Nc4cccc(Br)c4)sc3n2)cc1` [Compound 454, 3-amino-N-(3-bromophenyl)-6-(4-methoxyphenyl)thieno[2,3-b]pyridine-2-carboxamide]: the EC50 in assay [1] (setting [5]) is below 5 µM; in assay [2] (DENV1, viral yield assay) it was below 5 µM; in assay [3] (DENV4, viral yield assay), below 5 µM; in assay [4] (DENV3, viral yield assay) it was below 5 µM.
